How the values were obtained:
Assay in all cases: relative viability (nuclei count vs DMSO), 5 days (fraction); higher = more cells survive
[1] = compound: CC1=CC(=CC=C1)NC2=NC(=CS2)C3=CC=NC=C3 + NC(=O)Nc1cc(-c2cccc(F)c2)sc1C(=O)N[C@H]1CCCNC1 [AZD7762] (partner 0.2 µM)
In short: (§1)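 Nuclei were stained with Hoechst during a one-step fixation (final 0.05% Triton X-100, 1% formaldehyde, 1 ug/ml Hoechst) carried out 5 days after dosing, then counted on 4× images. The cells, lung cancer lines in 1536-well plates, had been dosed by pin tool the day after seeding with one drug alone or a fixed anchor-drug dose plus five library-drug doses (not always all listed) in √10 steps. Relative viability is the nuclei count in treated wells divided by that in vehicle wells, and each value is the median of duplicate plates.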

Masitinib + Phenformin = compound: Cc1ccc(NC(=O)c2ccc(CN3CCN(C)CC3)cc2)cc1Nc1nc(-c2cccnc2)cs1 [Masitinib] + N=C(N)NC(=N)NCCc1ccccc1 [Phenformin] (partner 250 µM)
In short: as §1

[2] = compound: CC1=CC(=CC=C1)NC2=NC(=CS2)C3=CC=NC=C3 + Cc1cc(Nc2cc(N3CCN(C)CC3)nc(Sc3ccc(NC(=O)C4CC4)cc3)n2)n[nH]1 [Tozasertib] (partner 0.1 µM)
In short: as §1

[3] = compound: CC1=CC(=CC=C1)NC2=NC(=CS2)C3=CC=NC=C3 + Nc1nc2[nH]cc(CCc3ccc(C(=O)N[C@@H](CCC(=O)O)C(=O)O)cc3)c2c(=O)[nH]1 [Pemetrexed] (partner 0.2 µM)
In short: as §1

Cell Line	relative viability ([1]; first compound 0.08 µM)	relative viability ([1]; first compound 0.253 µM)	relative viability ([1]; first compound 0.8 µM)	relative viability ([1]; first compound 2.53 µM)	relative viability ([1]; first compound 8 µM)	relative viability (Masitinib + Phenformin; first compound 0.01 µM)	relative viability (Masitinib + Phenformin; first compound 0.03162 µM)	relative viability (Masitinib + Phenformin; first compound 0.1 µM)	relative viability (Masitinib + Phenformin; first compound 0.3162 µM)	relative viability (Masitinib + Phenformin; first compound 1 µM)	relative viability ([2]; first compound 0.08 µM)	relative viability ([2]; first compound 0.253 µM)	relative viability ([2]; first compound 0.8 µM)	relative viability ([2]; first compound 2.53 µM)	relative viability ([2]; first compound 8 µM)	relative viability ([3]; first compound 0.08 µM)	relative viability ([3]; first compound 0.253 µM)	relative viability ([3]; first compound 0.8 µM)	relative viability ([3]; first compound 2.53 µM)	relative viability ([3]; first compound 8 µM)
LOU-NH91	0.615	0.631	0.714	0.761	0.468	0.656	0.606	0.683	0.54	0.605	0.607	0.709	0.566	0.681	0.58	0.38	0.391	0.348	0.366	0.366
LU99A	0.36	0.326	0.361	0.374	0.442	0.868	0.807	0.859	0.856	0.703	0.247	0.265	0.297	0.257	0.28	0.141	0.199	0.171	0.178	0.182
LXF-289	1.04	1.12	1.04	1.2	0.964	0.461	0.514	0.477	0.522	0.451	0.168	0.182	0.188	0.189	0.13	0.851	0.924	0.708	0.871	0.792
NCI-H23	0.283	0.276	0.213	0.244	0.223	0.846	0.734	0.881	0.781	0.748	0.404	0.324	0.296	0.253	0.418	0.629	0.447	0.66	0.582	0.778
NCI-H322M	0.46	0.549	0.551	0.553	0.455	0.789	0.799	0.741	0.75	0.715	0.419	0.444	0.478	0.519	0.492	0.564	0.576	0.608	0.615	0.624
NCI-H358		0.594	0.532	0.521	0.542	0.316	0.346	0.359	0.363	0.327	0.112	0.116	0.11	0.118	0.101	0.153	0.19	0.175	0.176	0.166
NCI-H441	1.1	1.01	1.1	1.35	0.997	0.654	1.05	0.837	0.94	0.843	0.617	0.536	0.527	0.492	0.484	0.265	0.265	0.246	0.255	0.255
NCI-H460	0.555	0.529	0.625	0.622	0.497	0.482	0.586	0.508	0.457	0.503	0.486	0.337	0.395	0.0737	0.113	0.0627	0.0625	0.0614	0.0648	0.0687
NCI-H522	0.681	0.822	0.803	0.848	0.852	0.653		0.635	0.775	0.714	0.539	0.54	0.59	0.504	0.643	0.966	1.12	1.17	0.995	1.19
NCI-H596	0.913	0.98	0.959	1.15	0.86	0.836	0.769	0.824	0.831	0.691	0.93	0.968	0.745	0.861	0.746	0.494	0.472	0.446	0.454	0.463
NCI-H647	0.379	0.372	0.558	0.382	0.414	0.549	0.521	0.526	0.57	0.584	0.266	0.29	0.286	0.316	0.222	0.181	0.154	0.147	0.167	0.151
NCI-H650	0.766	0.896	1.05	0.926	0.999	0.508	0.428	0.514	0.303	0.425	0.654	0.646	0.78	0.645	0.727	0.953	0.88	1.07	0.863	1.06
NCI-H838	0.812	0.924	0.85	0.928	0.829	0.45	0.498	0.521	0.508	0.569	0.229	0.227	0.242	0.234	0.225	0.26	0.228	0.263	0.257	0.241
NCI-H1355	0.657	0.654	0.513	0.653	0.558	0.462	0.384	0.478	0.379	0.406	0.518	0.516	0.428	0.335	0.281	0.866	0.778	0.791	0.75	0.692
NCI-H1395	0.401		0.393	0.352	0.336	0.42	0.442	0.473	0.47	0.424	0.604	0.782	0.689	0.669	0.693	0.757		0.921	0.596	0.728
NCI-H1437	1.07	1.11	1.1	1.12	1.11	0.249	0.297	0.25	0.294	0.329	0.417	0.465	0.448	0.448	0.407	0.349	0.326	0.27	0.31	0.283

Source: the supplement of paper PMC10307832
